One test concerns the target PI3Kalpha (Homo sapiens (Human), UniProt P42336). Description: Cell-free kinase assay (ALPHA technology), PI3Kalpha. It is filed as biochemical. The note with it: 100 μM ATP. The essentials: (§1)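 Recombinant human GST- or His-tagged kinases were assayed for 1 h with ALPHA bead detection read after overnight standing. For PI3Kalpha: 1 ng enzyme, 100 μM ATP, 20 μM PIP2 in Hepes pH 7.4, detected by GST:Grp1/biotin-PIP3 competition. The p38alpha and Jnk assays followed the MAPK format (10 μM ATP, biotin-MBP, anti-phospho-MBP); IC50 from %-inhibition.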

The target in the next test is Erk2 (Homo sapiens, UniProt P28482). Description: Cell-free kinase assay (ALPHA technology), Erk2. The format is biochemical. The note with it: 10 μM ATP. Summed up: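 Recombinant tagged Erk2 kinase reactions were stopped with ALPHA bead mix […]. The signal was read after standing overnight. Controls were run in eight replicates and compounds in duplicate, and IC50 was fitted.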

The next test relates to Jnk1 + Jnk2. Description: Cell-free kinase assay (ALPHA technology), Jnk1 + Jnk2. The format is biochemical, human. The note with it: 10 μM ATP. The essentials:
as §1

For a further test, the system named is Hct116. In words: XTT assay, anti-proliferative effect, Hct116. To be noted: 45 h incubation. The format is cell-based. As for the experimental part:
The principle of this test is based on the intracellular reduction of the tetrazolium dye XTT (sodium 3′-[1-(phenylaminocarbonyl)-3,4-tetrazolium]-bis(4-methoxy-6-nitro)benzene sulfonic acid, Sigma) to a formazan dye by mitochondrial dehydrogenases. The dye is only formed by metabolically active cells and its photometrically measurable intensity is a quantitative indicator for the presence of living cells. The reduction of dye formation by incubation of the cells with substances serves as a parameter for the anti-proliferative effect.
The tumour cell lines (ATCC) were injected into 96-well microtitre plates in a defined cell number (5000 cells/well for BxPC3 and Hct116; 10000 cells/well for MDA MB468) and then incubated overnight in an incubator at 37° C., 5% CO2 and 95% air humidity. The test substances were prepared as stock solutions (10 mM) in DMSO. […] The cell plates were then incubated for 45 h in an incubator at 37° C., 5% CO2 and 95% air humidity.
For the detection reaction the substrate XTT was mixed with PMS (N-Methyl dibenzopyrazine methylsulfate, Sigma) and added to the cells so that a final concentration of 325 μg XTT/ml and 2.5 μg PMS/ml was obtained. It was then incubated for 3 h at 37° C., 95% air humidity. The formazan salt formed by the cellular dehydrogenases could then be quantified by adsorption at 490 nm.
The % inhibition value was evaluated by means of the following formula from the values for the optical densities measured in each case at 490 nm:
Eight determinations were made for each control and two for the substance samples. The 0% control contains no cells, the 100% control (proliferation control) contains no test substance. The EC50 values were determined using GraphPadPrism.
A general note: Formazan colour is commonly taken as a measure of viable cells.

In a further test the target is p38alpha (Homo sapiens (Human), UniProt Q16539). Description: Cell-free kinase assay (ALPHA technology), p38alpha. The format is biochemical. The note with it: 10 μM ATP.

Molecules are shown by their SMILES.

Sequence of Erk2 (P28482 2-360 limits assumed): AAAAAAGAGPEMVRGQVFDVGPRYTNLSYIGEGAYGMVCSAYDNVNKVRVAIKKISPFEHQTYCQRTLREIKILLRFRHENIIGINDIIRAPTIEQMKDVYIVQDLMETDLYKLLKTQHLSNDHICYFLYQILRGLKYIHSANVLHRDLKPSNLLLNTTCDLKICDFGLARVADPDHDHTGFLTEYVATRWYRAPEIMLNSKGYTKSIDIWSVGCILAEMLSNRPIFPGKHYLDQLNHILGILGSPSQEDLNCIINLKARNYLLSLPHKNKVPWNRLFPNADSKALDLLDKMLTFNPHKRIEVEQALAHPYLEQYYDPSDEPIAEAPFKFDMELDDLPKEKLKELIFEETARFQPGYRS
Sequence of PI3Kalpha (P42336 whole entry): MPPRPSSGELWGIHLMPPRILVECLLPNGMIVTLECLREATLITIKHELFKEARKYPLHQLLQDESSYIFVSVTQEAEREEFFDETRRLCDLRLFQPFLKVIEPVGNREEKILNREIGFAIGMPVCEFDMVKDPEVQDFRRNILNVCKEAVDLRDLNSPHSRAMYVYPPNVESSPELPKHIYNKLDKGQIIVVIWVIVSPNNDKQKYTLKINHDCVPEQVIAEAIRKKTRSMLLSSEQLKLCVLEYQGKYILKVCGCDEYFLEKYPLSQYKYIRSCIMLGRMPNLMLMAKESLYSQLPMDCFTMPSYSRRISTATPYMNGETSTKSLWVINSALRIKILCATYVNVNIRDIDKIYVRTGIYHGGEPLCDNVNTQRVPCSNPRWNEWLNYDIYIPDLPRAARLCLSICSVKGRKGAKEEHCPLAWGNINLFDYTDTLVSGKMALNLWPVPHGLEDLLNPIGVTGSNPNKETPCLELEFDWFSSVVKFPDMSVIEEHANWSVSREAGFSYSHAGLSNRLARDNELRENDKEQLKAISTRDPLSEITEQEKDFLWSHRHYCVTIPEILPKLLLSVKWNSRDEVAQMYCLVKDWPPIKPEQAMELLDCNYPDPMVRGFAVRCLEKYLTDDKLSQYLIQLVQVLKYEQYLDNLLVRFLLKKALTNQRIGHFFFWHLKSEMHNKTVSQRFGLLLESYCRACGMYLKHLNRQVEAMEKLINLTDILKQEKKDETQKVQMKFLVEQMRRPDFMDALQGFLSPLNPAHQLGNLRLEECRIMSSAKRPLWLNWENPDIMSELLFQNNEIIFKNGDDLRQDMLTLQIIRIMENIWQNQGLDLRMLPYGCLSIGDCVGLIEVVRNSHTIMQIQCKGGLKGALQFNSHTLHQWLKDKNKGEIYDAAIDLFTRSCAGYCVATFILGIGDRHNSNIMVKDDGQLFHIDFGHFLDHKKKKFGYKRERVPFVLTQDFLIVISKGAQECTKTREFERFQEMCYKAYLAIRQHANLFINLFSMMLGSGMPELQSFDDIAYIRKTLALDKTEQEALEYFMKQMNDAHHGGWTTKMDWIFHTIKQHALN
Sequence of PI3Kalpha (P27986 whole entry partner): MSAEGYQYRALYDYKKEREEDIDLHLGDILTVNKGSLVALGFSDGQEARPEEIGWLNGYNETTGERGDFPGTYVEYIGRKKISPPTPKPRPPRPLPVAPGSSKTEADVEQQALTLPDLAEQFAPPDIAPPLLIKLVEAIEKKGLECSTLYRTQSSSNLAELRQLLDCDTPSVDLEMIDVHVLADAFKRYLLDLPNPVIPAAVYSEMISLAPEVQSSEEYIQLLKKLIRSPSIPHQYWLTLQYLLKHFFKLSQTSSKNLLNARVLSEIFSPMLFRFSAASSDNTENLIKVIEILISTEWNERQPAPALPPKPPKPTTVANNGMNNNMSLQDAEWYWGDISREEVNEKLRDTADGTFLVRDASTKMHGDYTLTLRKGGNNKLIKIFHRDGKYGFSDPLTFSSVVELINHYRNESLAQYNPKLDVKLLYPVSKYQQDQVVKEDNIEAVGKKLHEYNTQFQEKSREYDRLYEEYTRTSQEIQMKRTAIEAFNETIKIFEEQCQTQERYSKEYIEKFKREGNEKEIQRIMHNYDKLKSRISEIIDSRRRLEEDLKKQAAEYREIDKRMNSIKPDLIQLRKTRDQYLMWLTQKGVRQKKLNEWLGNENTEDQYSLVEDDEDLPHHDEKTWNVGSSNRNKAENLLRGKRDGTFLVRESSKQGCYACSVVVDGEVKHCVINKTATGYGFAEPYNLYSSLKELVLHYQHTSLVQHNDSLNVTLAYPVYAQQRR
Sequence of p38alpha (Q16539 whole entry): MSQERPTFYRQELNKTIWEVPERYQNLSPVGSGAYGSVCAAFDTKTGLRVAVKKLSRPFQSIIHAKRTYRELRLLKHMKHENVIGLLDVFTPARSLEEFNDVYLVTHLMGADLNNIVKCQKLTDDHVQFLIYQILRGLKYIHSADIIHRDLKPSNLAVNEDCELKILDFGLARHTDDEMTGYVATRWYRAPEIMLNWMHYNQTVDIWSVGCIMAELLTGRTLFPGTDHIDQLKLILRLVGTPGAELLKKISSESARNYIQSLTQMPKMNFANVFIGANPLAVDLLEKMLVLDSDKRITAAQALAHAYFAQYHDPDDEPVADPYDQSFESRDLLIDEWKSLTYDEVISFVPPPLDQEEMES

On to `C=CCNC(=S)Nc1ccc2ncc(-c3ccc(O)cc3)nc2n1` [Compound 30, 1-allyl-3-[3-(4-hydroxy-phenyl)-pyrido[2,3-b]pyrazin-6-yl]-thiourea], for which the IC50 (in general, the concentration at which inhibition is half-maximal) on PI3Kalpha was 0.37 µM; against Erk2, 0.392 µM; with Jnk1 + Jnk2, 21.8 µM; on p38alpha, over 100 µM. Also, the EC50 – broadly, the midpoint of the concentration-response curve – with Hct116 (Homo sapiens, HCT-116) worked out at 6 µM.
In the case of `CCNC(=O)Nc1ccc2ncc(Nc3ccc(C)cc3)nc2n1` [Compound 150, 1-Ethyl-3-(3-p-tolylamino-pyrido[2,3-b]pyrazin-6-yl)-urea], the IC50 on PI3Kalpha is 0.129 µM; against Erk2 it was 18.7 µM; in the test with Jnk1 + Jnk2, over 100 µM; against p38alpha it was 18.1 µM. In the test with Hct116 (Homo sapiens, HCT-116), this compound returned a half-maximal effective concentration (EC50) of 2.3 µM.
As to `O=C(NCCCCO)Nc1ccc2ncc(-c3ccccc3)nc2n1` [Compound 146, 1-(4-Hydroxy-butyl)-3-(3-phenyl-pyrido[2,3-b]pyrazin-6-yl)-urea], the IC50 was 1.1 µM on PI3Kalpha, 0.155 µM against Erk2, 3.3 µM with Jnk1 + Jnk2 and over 100 µM on p38alpha. The same compound yielded an EC50 with Hct116 (Homo sapiens, HCT-116) of 9.3 µM.
On to `CCNC(=O)Nc1ccc2ncc(-c3ccc(O)c(OC)c3)nc2n1.Cc1ccc(S(=O)(=O)O)cc1` [Compound 183, 1-Ethyl-3-[3-(4-hydroxy-3-methoxy-phenyl)-pyrido[2,3-b]pyrazin-6-yl]-urea p-Toluolsulfonate], for which the IC50 against PI3Kalpha is 2.8 µM; on Erk2, 0.203 µM; with Jnk1 + Jnk2, 4.7 µM; at p38alpha, over 100 µM. In the test on Hct116, this compound yielded an EC50 of 2.1 µM.
Consider `CCNC(=O)Nc1ccc2ncc(-c3cnn(C)c3)nc2n1` [Compound 173, 1-Ethyl-3-[3-(1-methyl-1H-pyrazol-4-yl)-pyrido[2,3-b]pyrazin-6-yl]-urea], for which the IC50 on PI3Kalpha was 2.4 µM; against Erk2, 0.107 µM; with Jnk1 + Jnk2, 2.9 µM; against p38alpha, over 100 µM. Also, a half-maximal effect in the test on Hct116 (Homo sapiens, HCT-116) (EC50) was put at 9 µM.
Consider `CCNC(=O)Nc1ccc2ncc(-c3ccc(O)c(OC)c3)nc2n1` [Compound 124, 1-Ethyl-3-[3-(4-hydroxy-3-methoxy-phenyl)-pyrido[2,3-b]pyrazin-6-yl]-urea], for which the IC50 was 0.49 µM at PI3Kalpha, 0.062 µM at Erk2, 1 µM with Jnk1 + Jnk2 and over 100 µM against p38alpha. In addition, it took 1.5 µM to reach a half-maximal effect in the test with Hct116 (Homo sapiens, HCT-116) (EC50).

The values above are taken from US8937068B2, “Pyridopyrazine derivatives and their use” (Zentaris GmbH, priority 2005, dated 2015).
